Source: PubChem BioAssay AID330 (DTP/NCI, 2004)
“And” between values parts separate entries of the source, which are not always exact repeats. Equal entries are not always repeated. Inconclusive results and toxic doses are left out. How the source made its calls: active means survival T/C of 150% or more; inactive means T/C below 125% in these data.

Tested on: P388 leukemia ip, CD2F1 mice, survival T/C
Test: NCI In Vivo Anticancer Drug Screen. Data for tumor model P388 Leukemia (intraperitoneal) in CD2F1 (CDF1) mice
Settings: endpoint: median survival time, higher = longer survival
In short: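 Mice carrying the transplanted tumor received test compound or vehicle. Survival was recorded in each group, and the value is the treated-group measurement divided by that of the vehicle-treated control group.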

[1] = dose: 100.0 mg/kg/injection, schedule: Q01DX001 (ip), vehicle: saline with Tween-80
[2] = dose: 60.0 mg/kg/injection, schedule: Q01DX005 (ip), vehicle: Klucel (hydroxypropylcellulose) (HPC)
[3] = dose: 120.0 mg/kg/injection, schedule: Q01DX005 (ip), vehicle: Klucel (hydroxypropylcellulose) (HPC)
[4] = dose: 6.25 mg/kg/injection, schedule: Q01DX005 (ip), vehicle: Klucel (hydroxypropylcellulose) (HPC)
[5] = dose: 12.5 mg/kg/injection, schedule: Q01DX005 (ip), vehicle: Klucel (hydroxypropylcellulose) (HPC)
[6] = dose: 60.0 mg/kg/injection, schedule: Q01DX005 (ip), vehicle: saline with Tween-80
[7] = dose: 120.0 mg/kg/injection, schedule: Q01DX005 (ip), vehicle: saline with Tween-80
[8] = dose: 240.0 mg/kg/injection, schedule: Q01DX005 (ip), vehicle: saline with Tween-80
[9] = dose: 50.0 mg/kg/injection, schedule: Q01DX009 (ip), vehicle: Klucel (hydroxypropylcellulose) (HPC)
[10] = dose: 100.0 mg/kg/injection, schedule: Q01DX009 (ip), vehicle: Klucel (hydroxypropylcellulose) (HPC)
[11] = dose: 200.0 mg/kg/injection, schedule: Q01DX009 (ip), vehicle: Klucel (hydroxypropylcellulose) (HPC)

Measured: T/C

COC(=O)C#CC(N)=O
inactive: dose: 1.25 mg/kg/injection, schedule: Q01DX009 (ip), vehicle: saline sonified 113 % of control | dose: 1.65 mg/kg/injection, schedule: Q01DX009 (ip), vehicle: saline with Tween-80 118 % of control | dose: 2.5 mg/kg/injection, schedule: Q01DX009 (ip), vehicle: saline with Tween-80 118 % of control | dose: 3.75 mg/kg/injection, schedule: Q01DX009 (ip), vehicle: saline with Tween-80 118 % of control | dose: 5.0 mg/kg/injection, schedule: Q01DX009 (ip), vehicle: saline sonified 122 % of control

CCC1CN2CCc3cc(OC)c(OC)cc3C2CC12CO2 (stereo not drawn)
inactive: dose: 12.5 mg/kg/injection, schedule: Q01DX009 (ip), vehicle: saline with Tween-80 114 % of control | dose: 25.0 mg/kg/injection, schedule: Q01DX009 (ip), vehicle: saline with Tween-80 108 % of control | dose: 50.0 mg/kg/injection, schedule: Q01DX009 (ip), vehicle: saline with Tween-80 96 % of control

N#C/C(=C/c1ccccc1)CBr
inactive: [1] 95 % of control

CCOC(=O)c1ccc(NC(=O)Nc2cccc(O)c2)cc1
inactive: [2] 107 % of control | [3] 104 % of control | dose: 240.0 mg/kg/injection, schedule: Q01DX005 (ip), vehicle: Klucel (hydroxypropylcellulose) (HPC) 91 % of control

CNCC1c2ccccc2CSc2c(OC)cccc21 (stereo not drawn)
inactive: [4] 101 % of control | [5] 98 % of control | dose: 25.0 mg/kg/injection, schedule: Q01DX005 (ip), vehicle: Klucel (hydroxypropylcellulose) (HPC) 98 % of control

S=C=[N][Sn]([N]=C=S)([c]1ccccc1)[c]1ccccc1.c1ccc2nc(-c3ccc4ccccc4n3)ccc2c1
inactive: dose: 1.87 mg/kg/injection, schedule: Q01DX005 (ip), vehicle: Klucel (hydroxypropylcellulose) (HPC) 97 % of control | dose: 3.75 mg/kg/injection, schedule: Q01DX005 (ip), vehicle: Klucel (hydroxypropylcellulose) (HPC) 109 % of control and 110 % of control

CC(=O)OCC1OC(n2ccc3c(=O)n(C)c(=O)[nH]c32)C(OC(C)=O)C(OC(C)=O)C1OC(C)=O (stereo not drawn)
inactive: [1] 92 % of control | dose: 200.0 mg/kg/injection, schedule: Q01DX001 (ip), vehicle: saline with Tween-80 105 % of control | dose: 400.0 mg/kg/injection, schedule: Q01DX001 (ip), vehicle: saline with Tween-80 108 % of control

COc1cc(C(C)c2cc3c(cc2O)OCO3)cc(OC)c1OC (stereo not drawn)
inactive: dose: 15.0 mg/kg/injection, schedule: Q01DX005 (ip), vehicle: saline with Tween-80 100 % of control | dose: 30.0 mg/kg/injection, schedule: Q01DX005 (ip), vehicle: saline with Tween-80 98 % of control | [6] 103 % of control and 107 % of control and 108 % of control | [7] 100 % of control and 114 % of control and 122 % of control | [8] 123 % of control | dose: 480.0 mg/kg/injection, schedule: Q01DX005 (ip), vehicle: saline with Tween-80 86 % of control

CCCCCCCC(=O)NC1CC(O[C@H]2C[C@](O)(C(C)=O)Cc3c(O)c4c(c(O)c32)C(=O)c2c(OC)cccc2C4=O)OC(C)C1O (stereo partly drawn)
inactive: dose: 0.75 mg/kg/injection, schedule: Q01DX009 (ip), vehicle: other 113 % of control | dose: 2.0 mg/kg/injection, schedule: Q04DX003 (ip), vehicle: other 107 % of control | dose: 4.0 mg/kg/injection, schedule: Q04DX003 (ip), vehicle: other 98 % of control | dose: 8.0 mg/kg/injection, schedule: Q04DX003 (ip), vehicle: other 102 % of control | dose: 16.0 mg/kg/injection, schedule: Q04DX003 (ip), vehicle: other 105 % of control | dose: 32.0 mg/kg/injection, schedule: Q04DX003 (ip), vehicle: other 116 % of control and 96 % of control | dose: 50.0 mg/kg/injection, schedule: Q04DX003 (ip), vehicle: other 118 % of control | dose: 64.0 mg/kg/injection, schedule: Q04DX003 (ip), vehicle: other 114 % of control | dose: 100.0 mg/kg/injection, schedule: Q04DX003 (ip), vehicle: other 105 % of control | dose: 128.0 mg/kg/injection, schedule: Q04DX003 (ip), vehicle: other 123 % of control | dose: 256.0 mg/kg/injection, schedule: Q04DX003 (ip), vehicle: other 123 % of control | dose: 400.0 mg/kg/injection, schedule: Q04DX003 (ip), vehicle: other 115 % of control

Cc1ccc2c(c1)C1(SC(C)C(=O)N1c1ccc(F)cc1)C(=O)N2 (stereo not drawn)
inactive: [6] 89 % of control | [7] 90 % of control | [8] 87 % of control

CCOC(=O)C1=C(C)NC(=O)NC1c1ccccc1 (stereo not drawn)
inactive: [9] 100 % of control | [10] 107 % of control | [11] 113 % of control | dose: 400.0 mg/kg/injection, schedule: Q01DX009 (ip), vehicle: Klucel (hydroxypropylcellulose) (HPC) 109 % of control

CC1(C)C(C=O)=CCC1CC(N)=O (stereo not drawn)
inactive: [6] 117 % of control | [7] 111 % of control

CC(=O)OCC1(OC(=O)CC(C)C)COC(O)C2C(C=O)=CC=C21 (stereo not drawn)
inactive: dose: 3.12 mg/kg/injection, schedule: Q01DX005 (ip), vehicle: Klucel (hydroxypropylcellulose) (HPC) 102 % of control | [4] 100 % of control | [5] 101 % of control

COc1cc2c(cc1OC)C(C#N)N(C(=O)c1ccccc1)C=C2 (stereo not drawn)
inactive: dose: 0.1 mg/kg/injection, schedule: Q01DX009 (ip), vehicle: water 98 % of control | dose: 0.19 mg/kg/injection, schedule: Q01DX009 (ip), vehicle: water 100 % of control | dose: 0.38 mg/kg/injection, schedule: Q01DX009 (ip), vehicle: water 98 % of control | dose: 0.75 mg/kg/injection, schedule: Q01DX009 (ip), vehicle: water 100 % of control | dose: 1.5 mg/kg/injection, schedule: Q01DX009 (ip), vehicle: water 100 % of control

CCCCCCCCCC1c2[nH]c3ccccc3c2C(=O)NN1C(C)=O (stereo not drawn)
inactive: dose: 100.0 mg/kg/injection, schedule: Q01DX001 (ip), vehicle: Klucel (hydroxypropylcellulose) (HPC) 98 % of control | dose: 200.0 mg/kg/injection, schedule: Q01DX001 (ip), vehicle: Klucel (hydroxypropylcellulose) (HPC) 98 % of control | dose: 400.0 mg/kg/injection, schedule: Q01DX001 (ip), vehicle: Klucel (hydroxypropylcellulose) (HPC) 104 % of control

Cc1cc(=O)n2c(nc3ccccc32)s1
inactive: [9] 109 % of control | [10] 96 % of control | [11] 109 % of control

CC1[C@@]2(CCC(C)(C)O2)O[C@@H]2C=C3C4CCC5Cc6nc7c(nc6C[C@@]5(C)C4C[C@H](O)[C@@]3(C)[C@]12O)CC1CCC2C3=C[C@H]4O[C@@]5(O[C@@](C)(CO)C[C@@H]5O)C(C)[C@@]4(O)[C@]3(C)[C@@H](O)CC2[C@]1(C)C7 (stereo partly drawn)
inactive: dose: 12.5 micrograms/kg/injection, schedule: Q01DX009 (ip), vehicle: saline + alcohol 109 % of control | dose: 25.0 micrograms/kg/injection, schedule: Q01DX009 (ip), vehicle: saline + alcohol 98 % of control | dose: 50.0 micrograms/kg/injection, schedule: Q01DX009 (ip), vehicle: saline + alcohol 107 % of control | dose: 100.0 micrograms/kg/injection, schedule: Q01DX009 (ip), vehicle: saline + alcohol 107 % of control

O=P1(c2ccccc2)CCCCN1Cc1ccccc1 (stereo not drawn)
inactive: dose: 100.0 mg/kg/injection, schedule: Q04DX003 (ip), vehicle: saline 108 % of control | dose: 200.0 mg/kg/injection, schedule: Q04DX003 (ip), vehicle: saline 94 % of control | dose: 400.0 mg/kg/injection, schedule: Q04DX003 (ip), vehicle: saline 116 % of control

C=Cn1c([N+](=O)[O-])cnc1/C=C/c1ccc(C(=O)OCCN(CC)CC)cc1
inactive: dose: 100.0 mg/kg/injection, schedule: Q04DX002 (ip), vehicle: Klucel (hydroxypropylcellulose) (HPC) 99 % of control | dose: 200.0 mg/kg/injection, schedule: Q04DX002 (ip), vehicle: Klucel (hydroxypropylcellulose) (HPC) 103 % of control

COC(=O)C1=CO[C@@H](C)[C@@H]2CN3CCc4c([nH]c5cc(OC)ccc45)[C@@H]3C[C@H]12
inactive: dose: 50.0 mg/kg/injection, schedule: Q01DX005 (ip), vehicle: saline with Tween-80 96 % of control | dose: 100.0 mg/kg/injection, schedule: Q01DX005 (ip), vehicle: saline with Tween-80 92 % of control

COC(=O)c1nc(N)nc(C(=O)OC)c1C(=O)c1ccco1
inactive: [2] 101 % of control | [3] 103 % of control

CCCCN1CSC2CCCCC21 (stereo not drawn)
inactive: dose: 25.0 mg/kg/injection, schedule: Q01DX005 (ip), vehicle: saline 98 % of control | dose: 50.0 mg/kg/injection, schedule: Q01DX005 (ip), vehicle: saline 111 % of control and 93 % of control | dose: 100.0 mg/kg/injection, schedule: Q01DX005 (ip), vehicle: saline 104 % of control and 111 % of control | dose: 200.0 mg/kg/injection, schedule: Q01DX005 (ip), vehicle: saline 121 % of control
